According to patent US20090143469A1, “SALTS OF NATEGLINIDE” (priority 2002, published 2009):
Where two headings read alike, the source gives them in different places.

What was measured:
Assay type in all cases: physicochemical
[1] = Solubility in water of nateglinide salts
[2] = Bulk density of nateglinide salts
[3] = Gain in weight at 84% RH (hygroscopicity) of nateglinide salts; details: for Gain % (gain in weight at 84% RH): 84% RH (relative humidity), * = XRPD changed, confirmed by Thermalgravimetry; for hygroscopicity (in words): different relative humidities

Row | Solubility Water [1] [µg/mL] | Bulk Density [2] [g/mL] | Gain % (gain in weight at 84% RH) [3] | Compound | further results
1 | >40000 | 0.14 | – | CC(C)[C@H]1CC[C@H](C(=O)N[C@H](Cc2ccccc2)C(=O)[O-])CC1.[Na+] [Sodium] | –
2 | 90 | 0.28 | <0.1% | CC(C)[C@H]1CC[C@H](C(=O)N[C@H](Cc2ccccc2)C(=O)O)CC1 [Form H of nateglinide, N-(trans-4-isopropylcyclohexylcarbonyl)-D-phenylalanine, reference compound] | –
3 | – | – | 8.2* % | CC(C)C1CCC(C(=O)NC(Cc2ccccc2)C(=O)[O-])CC1.[K+] (stereo not drawn) [Compound No. 5] | –
4 | – | – | 1.19% | CC(C)[C@H]1CC[C@H](C(=O)N[C@H](Cc2ccccc2)C(=O)[O-])CC1.[Na+] [Compound No. 1] | –
5 | – | – | 0.4% | CC(C)C1CCC(C(=O)NC(Cc2ccccc2)C(=O)[O-])CC1.CC(C)C1CCC(C(=O)NC(Cc2ccccc2)C(=O)[O-])CC1.[Ca+2] (stereo not drawn) [Compound No. 9] | –
6 | – | 0.18 | – | CC(C)[C@H]1CC[C@H](C(=O)N[C@H](Cc2ccccc2)C(=O)O)CC1 [Form B of nateglinide, N-(trans-4-isopropylcyclohexylcarbonyl)-D-phenylalanine, reference compound] | solubility [1]: 90 µg/mL
7 | >40000 | 0.17 | – | [K+] [Potassium] | –

The remaining lines, values behind:

Row | Compound | Solubility Water [1] [µg/mL] | Bulk Density [2] [g/mL] | Gain % (gain in weight at 84% RH) [3] | further results
8 | [Ca] [Calcium] | 540 | 0.24 | – | –
9 | CC(C)C1CCC(C(=O)NC(Cc2ccccc2)C(=O)O)CC1.N (stereo not drawn) [Comp. No. 17] | – | – | <0.1% | –
10 | CC(C)[C@H]1CC[C@H](C(=O)N[C@H](Cc2ccccc2)C(=O)O)CC1.CNC[C@H](O)[C@@H](O)[C@H](O)[C@H](O)CO [Comp. No. 12] | 7300 | 0.16 | <0.1% | hygroscopicity (in words) [3]: non-hygroscopic; water solubility compared with other forms (in words) [1]: lower than that of the alkaline metal salts of nateglinide
11 | CC(C)[C@H]1CC[C@H](C(=O)N[C@H](Cc2ccccc2)C(=O)[O-])CC1.CC(C)[C@H]1CC[C@H](C(=O)N[C@H](Cc2ccccc2)C(=O)[O-])CC1.[Mg+2] [Comp. No. 11] | 450 | 0.21 | <0.1% | hygroscopicity (in words) [3]: non-hygroscopic; water solubility compared with other forms (in words) [1]: comparable to that of the calcium analogue
12 | Lysine | – | 0.50 | – | –
13 | CC(C)[C@H]1CC[C@H](C(=O)N[C@H](Cc2ccccc2)C(=O)O)CC1.NCCCCC(N)C(=O)O [Comp. No. 14] | – | – | 1.3% | –
14 | Ammonium | <200 | 0.20 | – | –
15 | CC(C)[C@H]1CC[C@H](C(=O)N[C@H](Cc2ccccc2)C(=O)O)CC1.NC(CO)(CO)CO [Comp. No. 13] | – | 0.51 | <0.1% | Solubility Water ([1]; listed as TRIS): >40000 µg/mL; Solubility Water ([1]; listed as tris(hydroxymethyl)-aminomethane salt of nateglinide): more than 40 mg/ml
